Consider one compound from patent US20200352918A1, “COMPOUNDS AND METHODS FOR TREATING OR PREVENTING FIBROSIS” (priority 2019, published 2020).

In assay [1] the test system is iFA phenotype of mesenchymal-like cells on 13 kPa hydrogels. Description: iFA-prevention phenotypic high-content drug screen (iFA model). Format: cell-based, human. The protocol: Mesenchymal-like cells were cultured on 13 kPa functionalized polyacrylamide gels that were prepared as follows. 187.5 μl of 40% acrylamide, 60 μl of 2% bis-acrylamide and 8.55 μl of sodium bisulfate in a final volume of 990 μl of water was incubated for 20 min at room temperature to degas the mixture. To this mixture, 0.10% ammonium persulfate and 0.15% TEMED were added, mixed and 100 μl of the solution was added onto a 0.4% 3-(Trimethoxysily) propyl methacrylate pH 3.5 treated coverslip. A 2% dimethyl dichlorosilane in chloroform treated round glass coverslip was then inverted on the acrylamide solution and allowed to polymerize for 15 min between the two surfaces. The top coverslip was gently removed, and the bottom coverslips with the hydrogel were transferred to appropriate multi-well low adherent tissue culture plate containing coupling buffer (0.1 M sodium phosphate dibasic, 0.1 M sodium phosphate monobasic) pH 8. To functionalize the hydrogel, 1 part of 0.1 M p-benzoquinone in dioxane was added to the hydrogels containing 4 parts of coupling buffer and incubated at 37° C. for 30 min. The gel was then successively washed with 20% dioxane in water, water, 0.1 M sodium acetate buffer at pH 4.0 containing 1.0 M sodium chloride, 0.1 M sodium bicarbonate solution at pH 8.5 containing 1.0 M sodium chloride, and finally with coupling buffer at pH 7.5. The hydrogels were then coated with 0.1% gelatin for 2 hrs prior to seeding the cells. Cells were seeded at a density of 3000 cells/cm^2.
A phenotypic high-content drug screen was prepared to identify compounds capable of preventing the iFA phenotype in a 96-well format. An ImageXpress XL high-throughput imager with a 4× Plan objective (N/A 0.20) was used with image based focusing. Briefly, 100 μL media were plated in each well of 96 well plate using a Thermo Multidrop non-contact dispenser. Using a custom V&P pin tool mounted to a Beckman FX liquid handler, 1.5 μL compounds or DMSO were added. Mesenchymal-like cells were added as a suspension using the Multidrop at a density of 3.5×10^3 cells/well. The resulting compound concentration was 10 μM. Cells were imaged after 7 days of incubation at 37° C. and 5% CO2: A final of 0.5 μg/ml of Calcein AM and/or 10 μg/ml propidium iodide (viability dye) with 1 μg/ml Hoechst 33342 were added and imaged using the ImageXpress XL system. Data mining was performed using a custom module consisting of the following steps: The image background was removed using a top-hat filter with 25 μm round shape polisher. Next, cellular aggregates and individual spindle-shaped cells were identified. Aggregates of cells were defined by size with a cut-off of 60 to 200 micron and an intensity of at least 200 gray scales over background. Individual spindle-shaped cells were identified as smaller objects with cut-offs from 15 to 100 micron and a lower intensity of at least 70 gray scales over background.
Additional morphometric measurements were made by counting labeled cell nuclei and measuring total area covered with cells per well. The data resulting from the screen were batch exported through MetaXpress and uploaded into a Collaborative Drug Discovery (CDD) cloud based database (Ekins and Bunin, 2013, Methods in molecular biology 993, 139-154.). Hits were selected on a cut-off of more than 3 standard deviations from mean using data normalized to reference wells in each plate. IC50 values (the half maximal inhibitory concentration) from confirmation experiments were calculated from dose-response signal curves using the Prism software (GraphPad Software).
Signal-to-background (S/B) ratio, standard variation and variation coefficients were calculated as the signal of DMSO treated wells divided by the signal of the hit compound (AA5) treated wells. […]

Assay [2] has the same test system. Description: iFA resolution screen (reversal of fibrosis) in the iFA model. The assay is classed as cell-based, human. Conditions: phenotype formed over 10 days, then compounds added. The protocol:
Signal-to-background (S/B) ratio, standard variation and variation coefficients were calculated as the signal of DMSO treated wells divided by the signal of the hit compound (AA5) treated wells. Z′ values were used to measure assay quality which was calculated by the formula of Z′=1−3(SDTotal+SDBackground)/(MeanTotal−MeanBackground)(Inglese et al., 2006) where SDTotal and MeanTotal are the standard deviation and mean of signal for DMSO treated wells, and SDBackground and MeanBackground are the standard deviation and mean of signal for AA5 treated wells. Data normalization and curve fitting were performed as previously reported (Kariv et al., 1999, J Biomol Screen 4, 27-32.). Z′ values were obtained for the number of cellular aggregates and also calculated a phenotypic cell index as the product of cell number x area/Log(number of iFA aggregates+5). Secondary screening using α-SMA and collagen deposition was employed to further ensure efficacy and resolution of the iFA phenotype of the compounds. For the resolution screen, cells were seeded in a 96-well plate as mentioned above and compounds were added at day 13 to analyze their capacity to resolve the iFA phenotype using the same readouts as above. Dose response experiments were carried out as in the secondary screen but with at least 12 steps of a 1:1 dilution resulting in final compound concentrations from 500 μM to high nanomolar ranges.
The primary assay involved plating together the iPSCs and Table 1 compounds sourced from the library on day 1 on the hydrogel and examining the phenotype on day 7 of the culture as described herein. The secondary screen repeated the assay using compound sourced commercially or from additional library materials. The dose response refers to a 20 point dose course that ranges from picomolar to millimolar concentrations. […] As described herein, the cellular phenotype parameters evaluated included size, fluorescence intensity of the iFA phenotype, the shape factor of the cells/aggregates, and the cells' viability in the presence of viability dyes (Calcein AM).

For `CNC(C)Cc1cccs1` (stereo not shown) [Methiopropamine], in assay [1] (20 point dose course, picomolar to millimolar), the Dose response entry is given as “+++ (+++ = strong effect)”. Moreover, the “Efficacy in secondary screen” value in assay [1] (assay repeated with compound sourced commercially or from additional library materials) was “+++ (+++ = strong effect)”. Besides, the “Efficacy in primary screen” value in assay [1] (library compound plated with cells on day 1 on hydrogel, phenotype on day 7, 10 μM) was “+++ (+++ = strong effect)”. Moreover, the Reversal of fibrosis result in assay [2] is “Yes”.
